The numbers were not newly measured in patent US20160175335A1, “ANTIFUNGAL COMBINATION THERAPY OF TAVABOROLE AND EFINACONAZOLE” (priority 2014, published 2016), which cites them from elsewhere.

The data set concerns dermatophytes, yeasts and non-dermatophyte molds. The settings on record: against dermatophytes.

Turning to `C=C1CCN([C@H](C)[C@](O)(Cn2cncn2)c2ccc(F)cc2F)CC1` [Efinaconazole, ((2R,3R)-2-(2,4-difluorophenyl)-3-(4-methylenepiperidin-1yl)-1-(1H-1,2,4-triazol-1-yl)butan-2-ol)], the “effectiveness in vitro compared with other antifungal agents” value was “more effective in vitro than terbinafine, itraconazole, ciclopirox and amorolfine”.
